Laboratory results published in the NIST ThermoML archive (doi:10.1021/je800110r).

Settings: 303.16 K, Liquid, Vibrating tube method

CCCCCCCCCC [decane]
Settings	mass density [kg/m3]
14288 kPa	733.4
14319 kPa	733.4
14353 kPa	733.4
14376 kPa	733.5
14407 kPa	733.3
14434 kPa	733.6
14457 kPa	733.5
14493 kPa	733.5
14524 kPa	733.5
14547 kPa	733.5
14586 kPa	733.6
14617 kPa	733.7
14640 kPa	733.8
14673 kPa	733.7
14705 kPa	733.6
14734 kPa	733.7
14767 kPa	733.7
14792 kPa	733.7
14822 kPa	733.6
14848 kPa	733.7
14871 kPa	733.8
14896 kPa	733.8
14923 kPa	733.7
14942 kPa	734
14976 kPa	734
14997 kPa	733.8
15016 kPa	733.9
15041 kPa	733.8
15066 kPa	734
15088 kPa	733.9
15110 kPa	734
15133 kPa	734
15151 kPa	734
15180 kPa	734
15209 kPa	734.1
15228 kPa	734.1
15257 kPa	734.1
15283 kPa	733.9
15302 kPa	734.1
15329 kPa	734.1
15355 kPa	734.2
15378 kPa	734.3
15404 kPa	734.2
15434 kPa	734.3
15454 kPa	734.3
15481 kPa	734.3
15504 kPa	734.2
15524 kPa	734.3
15557 kPa	734.3
15584 kPa	734.2
15605 kPa	734.4
15639 kPa	734.4
15669 kPa	734.3
15690 kPa	734.4
15720 kPa	734.3
15744 kPa	734.5
15769 kPa	734.4
15790 kPa	734.3
15814 kPa	734.5
15838 kPa	734.6
15867 kPa	734.4
15889 kPa	734.5
15918 kPa	734.5
15947 kPa	734.5
15968 kPa	734.6
15997 kPa	734.6
16029 kPa	734.6
16050 kPa	734.6
16076 kPa	734.7
16098 kPa	734.8
16123 kPa	734.7
16149 kPa	734.7
16172 kPa	734.7
16206 kPa	734.6
16237 kPa	734.7
16261 kPa	734.7
16288 kPa	734.7
16311 kPa	734.9
16331 kPa	734.8
16355 kPa	734.9
16372 kPa	734.9
16395 kPa	734.8
16413 kPa	734.8
16443 kPa	734.9
16470 kPa	735
16490 kPa	735.1
16511 kPa	734.9
16531 kPa	735.1
16553 kPa	735
16574 kPa	734.9
16600 kPa	735
16618 kPa	735.1
16642 kPa	735
16661 kPa	734.8
16691 kPa	735.2
16715 kPa	735
16733 kPa	735.2
16758 kPa	735.1
16785 kPa	735.2
16800 kPa	735.2
16831 kPa	735.2
16853 kPa	735.2
16878 kPa	735.1
16902 kPa	735.2
16924 kPa	735.2
16940 kPa	735.2
16968 kPa	735.3
16994 kPa	735.3
17016 kPa	735.3
17041 kPa	735.4
17063 kPa	735.4
17084 kPa	735.4
17107 kPa	735.3
17129 kPa	735.4
17149 kPa	735.5
17181 kPa	735.4
17207 kPa	735.3
17225 kPa	735.6
17252 kPa	735.5
17278 kPa	735.6
17298 kPa	735.5
17331 kPa	735.5
17354 kPa	735.5
17377 kPa	735.5
17400 kPa	735.5
17419 kPa	735.5
17449 kPa	735.7
17479 kPa	735.7
17503 kPa	735.7
17533 kPa	735.6
17557 kPa	735.7
17581 kPa	735.7
17601 kPa	735.8
17625 kPa	735.8
17645 kPa	735.7
17673 kPa	735.9
17693 kPa	735.8
17724 kPa	735.9
17745 kPa	735.8
17773 kPa	735.9
17801 kPa	735.9
17825 kPa	735.9
17850 kPa	735.9
17878 kPa	735.9
17909 kPa	736
17931 kPa	735.9
17959 kPa	736
17977 kPa	736.1
18013 kPa	736
18041 kPa	736.1
18063 kPa	736.1
18092 kPa	736.1
18122 kPa	736
18144 kPa	736.1
18169 kPa	736.2
18195 kPa	736.2
18227 kPa	736.2
18253 kPa	736.1
18275 kPa	736.3
18304 kPa	736.2
18334 kPa	736.3
18356 kPa	736.2
18390 kPa	736.2
18413 kPa	736.4
18436 kPa	736.4
18466 kPa	736.3
18489 kPa	736.3
18523 kPa	736.4
18546 kPa	736.4
18569 kPa	736.4
18595 kPa	736.4
18614 kPa	736.5
18641 kPa	736.5
18664 kPa	736.5
18699 kPa	736.5
18738 kPa	736.5
18762 kPa	736.5
18789 kPa	736.5
18820 kPa	736.6
18843 kPa	736.6
18883 kPa	736.7
18914 kPa	736.5
18938 kPa	736.8
18962 kPa	736.7
18998 kPa	736.7
19031 kPa	736.7
19060 kPa	736.7
19085 kPa	736.7
19122 kPa	736.9
19159 kPa	736.8
19184 kPa	736.8
19223 kPa	736.9
19247 kPa	736.9
19269 kPa	736.8
19302 kPa	736.9
19335 kPa	737
19360 kPa	737
19383 kPa	737
19412 kPa	737
19434 kPa	737
19456 kPa	737
19477 kPa	736.9
19498 kPa	737.1
19522 kPa	737.1
19544 kPa	737.2
19566 kPa	737.2
19587 kPa	737.1
19612 kPa	737
19634 kPa	737.2
19656 kPa	737.1
19678 kPa	737.2
19703 kPa	737.3
19725 kPa	737.3
19748 kPa	737.3
19771 kPa	737.2
19794 kPa	737.2
19817 kPa	737.2
19841 kPa	737.2
19862 kPa	737.2
19880 kPa	737.3
19906 kPa	737.3
19925 kPa	737.4
19938 kPa	737.4
19956 kPa	737.4
19976 kPa	737.4
19997 kPa	737.4
20013 kPa	737.5
20034 kPa	737.3
20052 kPa	737.5
20073 kPa	737.5
20089 kPa	737.5
20104 kPa	737.4
20123 kPa	737.5
20143 kPa	737.6
20164 kPa	737.5
20180 kPa	737.6
20201 kPa	737.5
20222 kPa	737.6
20238 kPa	737.6
20259 kPa	737.6
20280 kPa	737.6
20293 kPa	737.7
20307 kPa	737.6
20323 kPa	737.7
20347 kPa	737.7
20369 kPa	737.7
20396 kPa	737.7
20420 kPa	737.6
20439 kPa	737.7
20461 kPa	737.7
20477 kPa	737.6
20501 kPa	737.8
20529 kPa	737.7
20545 kPa	737.7
20567 kPa	737.8
20586 kPa	737.9
20606 kPa	737.8
20625 kPa	737.8
20650 kPa	737.9
20667 kPa	737.9
20683 kPa	737.9
20706 kPa	738
20728 kPa	737.9
20745 kPa	738
20764 kPa	738
20787 kPa	738.1
20810 kPa	738
20827 kPa	738
20846 kPa	738
20863 kPa	738
20880 kPa	738
20897 kPa	738
20911 kPa	738.1
